Legend:
Assay type in all cases: cell-based, Human
U2OS cells [1] = experiment: DR-GFP assay of HR-mediated repair
Procedure: (§1) Human U2OS, HCT116, hTERT RPE-1, HEK293T, HeLa, U87, T98G, A2780, and human skin fibroblast cells (GM08398 and GM18366) were grown in DMEM media supplemented with 10% bovine calf serum, penicillin/streptomycin and non-essential amino acids. SV40 large T antigen transformed hTERT RPE-1 cells were generated by infecting hTERT RPE-1 cells with a SV40 large T antigen (SV40 LT)-expressing retrovirus and were selected using 500 μg/ml G418. The stable SV40 large T antigen transformed hTERT RPE-1 cell line was then maintained in culture media supplemented 500 μg/ml G418. For chronic treatment with ATR inhibitor (ATRi, VE-821) or ATM inhibitor (ATMi, KU-55933), cells were maintained in media with 5 μM ATR or ATM inhibitor respectively for 8 days before cells were subjected to western blot analysis, proteomic analysis, DR-GFP/EJ5-GFP assay or immunofluorescent staining. For CHK1 inhibitor (UCN-01), cells were treated for 5 days with 0.2 μM of inhibitor before the analysis. Primary human fibroblast cells from control subjects (GM08398) and patients with Seckel syndrome (GM18366, ATR-defective) were obtained from Coriell Institute for Medical Research, Camden, N.J.
For the DR-GFP assay, cells (U2OS, HCT116, hTERT RPE-1, HEK293T, HeLa, U87, T98G, A2780, 293-T-REX-E2F6 cells and SV40 large T antigen transformed hTERT RPE-1) were transfected with the mCherry plasmid or DR-GFP reporter plasmid (pDR-GFP; addgene plasmid 26475) together with a plasmid coding for I-SceI (pCBASceI; addgene plasmid 26477) or DR-GFP reporter plasmid together with an empty plasmid pCAGGS. Two days after transfection, cells were trypsinized, resuspended in PBS and then analyzed by flow cytometry using FACSAria Fusion or Accuri C6 cytometer (BD). In each experiment, the percentage of GFP-positive cells from the sample transfected with empty plasmid pCAGGS was subtracted from the percentage of GFP-positive cells in the sample transfected with I-SceI. The GFP percentage was then normalized by the mCherry transfection efficiency. Each graph was plotted based on at least 3 independent experiments showing mean±SEM (N≥3). For the EJ5-GFP assay, EJ5-GFP reporter plasmid (pimEJ5GFP, addgene plasmid 44026) was used instead of DR-GFP reporter plasmid and the assay was performed as described for DR-GFP assay.

U2OS cells [2] = experiment: Cell cycle analysis (propidium iodide, flow cytometry); conditions: CHK1i 0.2 μM, 5 days
Procedure: Cells were harvested by standard trypsinization and fixed with 70% ethanol. After fixation, cells from each sample were resuspended in PBS, permeabilized using 0.1% Triton X-100 and treated with RNase A (0.8 mg/ml). Then cells were stained with propidium iodide and analyzed by flow cytometry using FACSAria Fusion (BD) or Accuri C6 cytometer (BD) to determine the fraction of cells in different stages of the cell cycle.

HCT116 cells = experiment: Western blot after chronic CHK1i; conditions: chronic CHK1 inhibition
Procedure: (§2) Cells were harvested and lysed in modified radioimmunoprecipitation assay (RIPA) buffer (50 mM Tris-HCl pH 7.5, 150 mM NaCl, 1% tergitol, 0.25% sodium deoxycholate, 5 mM EDTA) supplemented with Complete EDTA-free protease inhibitor cocktail (Roche), 1 mM PMSF, 5 mM sodium fluoride, 10 mM β-glycerol-phosphate and 0.4 mM sodium orthovanadate. Whole cell lysates were cleared with 5 minute centrifugation at 13,000 rpm at 4° C. and mixed with 3×SDS sample buffer (bromophenol blue, stacking gel buffer, 50% glycerol, 3% SDS and 60 mM DTT). After being resolved on SDS-PAGE gels, proteins were then transferred onto polyvinylidene difluoride (PVDF) membranes and detected with designated antibodies.

U2OS cells [3] = experiment: Immunoblotting of HR factor abundance; conditions: CHK1 inhibitor 0.2 μM, 5 days
Procedure: FIG. 5A is a schematic diagram of the SILAC/MS experiment. FIG. 5B is a quadrant diagram of the SILAC/MS experiment. Each dot represents a different identified protein. Proteins with abundance reduced two-fold or more after ATRi treatment are shown in the upper-left corner (white quadrant). FIG. 5C is a WB analysis of U2OS cells after 8 days of chronic treatment with 5 μM of ATRi or ATMi. FIG. 5D is a time course WB analysis of U2OS cells during chronic treatment with 5 μM ATRi. FIG. 5E is a WB analysis of U2OS cells at distinct cell cycle stages. Cells were treated with 1 mM hydroxyurea (HU) or 50 ng/ml nocodazole (Noc) for 24 hours. HU treated cells were released for 2.5 hours in HU-free media. FIG. 5F is a WB analysis of U2OS cells untreated or treated for 8 days with 5 μM ATRi.
as §1, §2

U2OS cells [4] = experiment: Real time PCR of mRNA levels; conditions: ATRi 5 μM 8 days or CHK1i 0.2 μM 5 days, normalized to GAPDH
Excerpt: FIG. 9B is a bar graph showing the analysis of HR-mediated repair using the DR-GFP system. Relative fold change of GFP positive U2OS cells treated with CHK1i compared to DMSO treatment control. (Error bars=SEM, N=4, ****P-value<0.0001; one sample-t-test was used for the statistical analysis). FIGS. 9C-9D show a histogram showing representative FACS data (FIG. 9C) and a bar graph showing quantitation of G1, S and G2/M population for cell cycle analysis of CHK1i treated cells (FIG. 9D) (Error bars=SD, N=3). FIG. 9E are bar graphs showing real time PCR analysis of total RNA extracted from U2OS cells treated with DMSO, ATRi (5 μM for 8 days) or CHK1i (0.2 μM for 5 days). Values were normalized to GAPDH mRNA levels. (Error bars=SD, N=3). FIG. 9F is a schematic diagram showing a proposed model of how E2F transcription is regulated through ATR-CHK1 signaling. […] FIG. 9H is a bar graph showing DR-GFP analysis of 293-T-REX-E2F6 cells after 8 days of treatment with DMSO or doxycycline. (Error bars=SEM, N=4). FIG. 9I is a histogram showing cell cycle analysis of 293-T-REX-E2F6 cells after 8 days of treatment with DMSO or doxycycline. FIG. 9J is a schematic diagram showing a model depicting multiple roles of ATR in the control of HR capacity.
Cells cultured from 10 cm dish were collected and lysed in 1 ml of TRIzol (Invitrogen). Chloroform was added to the lysed sample to separate RNA. Separated RNA was precipitated by isopropyl alcohol, followed by two washes with 75% ethanol. 1 μg of extracted RNA from each sample was then reverse transcribed with Bio-Rad iScript cDNA synthesis kit. The samples (˜100 ng) were analyzed in a Roche 480 light cycler in a total of 15 μl containing SYBR green mix and primers. The values were calculated using “absolute quantification/2nd derivative max” in lightcycler 480 program and then normalized to the level of GAPDH.

| SMILES | HR efficiency (DR-GFP) (U2OS cells [1]; CHK1i 0.2 μM, 5 days) | Relative number of S phase cells (U2OS cells [2]) | Level of E2F1 and abundance of other HR proteins (WB) (HCT116 cells) | Abundance of BRCA1, RAD51, RRM2 and E2F1 (WB) (U2OS cells [3]) | mRNA levels of BRCA1 and RAD51 (U2OS cells [4]) | HR-mediated repair efficiency (DR-GFP, GFP positive cells over DMSO) (U2OS cells [1]; 5 μM, chronic 8 days) |
| --- | --- | --- | --- | --- | --- | --- |
| CN[C@@H]1C[C@H]2O[C@@](C)([C@@H]1OC)n1c3ccccc3c3c4c(c5c6ccccc6n2c5c31)C(=O)N[C@@H]4O [CHK1i, UCN-01] | sharp decrease in HR efficiency | increase in the relative number of S phase cells | did not lower the level of E2F1 nor the abundance of other HR proteins | severely reduced | reduction in the mRNA levels of BRCA1 and RAD51 | – |
| O=c1cc(-c2cccc3c2Sc2ccccc2S3)oc(N2CCOCC2)c1 [ATMi, KU-55933] | – | – | – | – | – | did not result in major changes in HR-mediated repair efficiency |
